Test results from patent US12240840B2, “Amide-substituted heterocyclic compounds for the treatment of conditions related to the modulation of IL-12, IL-23 and/or IFN-alpha” (BRISTOL-MYERS SQUIBB COMPANY, priority 2018, dated 2025).
Where two headings read alike, the source gives them in different places.

Test system: IFNα-induced pSTAT5 (pY694) in CD3 positive cells of human whole blood
Experiment: IFNα-Induced STAT Phosphorylation in Human Whole Blood
Type: cell-based
Settings: 1 h compound incubation, 1000 U/mL recombinant human IFNα A/D for 15 min, pSTAT5 in CD3 positive population, read-out: Human WB IFNα-Induced Stat Phosph. (IC50)
How it was run: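 Read-out is median fluorescence intensity of pSTAT5 (pY694) in the CD3-positive gate, by flow cytometry after fix/lyse and permeabilization. Before that, whole human blood anticoagulated with EDTA or ACD-A received compound for an hour and 1000 U/mL IFNα A/D for 15 min.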

IC50 (Homo sapiens) [nM] | IC50 [nM] | SMILES
> 10000 |  | [2H]C([2H])([2H])NC(=O)c1nnc(NC(=O)C2CC2)cc1Nc1cc(F)cc(-c2cc(C(=O)NCCCCC)n(C)n2)c1OC [Example 513]
870 |  | [2H]C([2H])([2H])NC(=O)c1nnc(NC(=O)C2CC2)cc1Nc1cc(F)cc(-c2cc(C(=O)N(C)CCN(C)C)n(C)n2)c1OC [Example 514]
290 |  | [2H]C([2H])([2H])NC(=O)c1nnc(NC(=O)C2CC2)cc1Nc1cc(F)cc(-c2cc(C(=O)N3CCC(N(C)C)CC3)n(C)n2)c1OC [Example 515]
170 |  | [2H]C([2H])([2H])NC(=O)c1nnc(NC(=O)C2CC2)cc1Nc1cc(F)cc(-c2cc(C(=O)N3CCC(N4CCCC4)CC3)n(C)n2)c1OC [Example 516]
350 |  | [2H]C([2H])([2H])NC(=O)c1nnc(NC(=O)C2CC2)cc1Nc1cc(F)cc(-c2cc(C(=O)N3CCCN(C)CC3)n(C)n2)c1OC [Example 517]
150 |  | [2H]C([2H])([2H])NC(=O)c1nnc(NC(=O)C2CC2)cc1Nc1cc(F)cc(-c2cc(C(=O)N3CCN(C(C)C)CC3)n(C)n2)c1OC [Example 518]
570 |  | [2H]C([2H])([2H])NC(=O)c1nnc(NC(=O)C2CC2)cc1Nc1cc(F)cc(-c2cc(C(=O)N3CCNC(=O)C3)n(C)n2)c1OC [Example 519]
770 |  | [2H]C([2H])([2H])NC(=O)c1nnc(NC(=O)C2CC2)cc1Nc1cccc(-c2cc(C(=O)N(C)CC(O)CO)n(C)n2)c1OC (stereo not drawn) [Example 520]
2410 |  | [2H]C([2H])([2H])NC(=O)c1nnc(NC(=O)C2CC2)cc1Nc1cccc(-c2cc(C(=O)NCC(O)CO)n(C)n2)c1OC (stereo not drawn) [Example 521]
190 |  | [2H]C([2H])([2H])NC(=O)c1nnc(NC(=O)C2CC2)cc1Nc1cccc(-c2cc(C(=O)N3CCC(OC)C3)n(C)n2)c1OC (stereo not drawn) [Example 522]
1680 |  | [2H]C([2H])([2H])NC(=O)c1nnc(NC(=O)C2CC2)cc1Nc1cccc(-c2cc(C(=O)NC(CO)CO)n(C)n2)c1OC [Example 523]
3400 |  | [2H]C([2H])([2H])NC(=O)c1nnc(NC(=O)C2CC2)cc1Nc1cccc(-c2cc(C(=O)N3CCC(N4CCN(CCO)CC4)CC3)n(C)n2)c1OC [Example 524]
240 |  | [2H]C([2H])([2H])NC(=O)c1nnc(NC(=O)C2CC2)cc1Nc1cccc(-c2cc(C(=O)N3C[C@@H](C)O[C@@H](C)C3)n(C)n2)c1OC [Example 525]
520 |  | [2H]C([2H])([2H])NC(=O)c1nnc(NC(=O)C2CC2)cc1Nc1cccc(-c2cc(C(=O)N(C)CCN(C)C)n(C)n2)c1OC [Example 526]
950 |  | [2H]C([2H])([2H])NC(=O)c1nnc(NC(=O)C2CC2)cc1Nc1cccc(-c2cc(C(=O)NCCCOC)n(C)n2)c1OC [Example 527]
840 |  | [2H]C([2H])([2H])NC(=O)c1nnc(NC(=O)C2CC2)cc1Nc1cccc(-c2cc(C(=O)NCC3CCN(C)C3)n(C)n2)c1OC (stereo not drawn) [Example 528]
200 |  | [2H]C([2H])([2H])NC(=O)c1nnc(NC(=O)C2CC2)cc1Nc1cccc(-c2cc(C(=O)N3CCC(N(C)C)CC3)n(C)n2)c1OC [Example 529]
60 |  | [2H]C([2H])([2H])NC(=O)c1nnc(NC(=O)C2CC2)cc1Nc1cccc(-c2cc(C(=O)N3CCN(C(C)C)CC3)n(C)n2)c1OC [Example 531]
470 |  | [2H]C([2H])([2H])NC(=O)c1nnc(NC(=O)C2CC2)cc1Nc1cccc(-c2cc(C(=O)N3CNCC(=O)C3)n(C)n2)c1OC [Example 532]
530 |  | [2H]C([2H])([2H])NC(=O)c1nnc(NC(=O)C2CC2)cc1Nc1cccc(-c2cc(C(=O)NCCC3CCCN3C)n(C)n2)c1OC (stereo not drawn) [Example 533]
470 |  | [2H]C([2H])([2H])NC(=O)c1nnc(NC(=O)C2CC2)cc1Nc1cccc(-c2cc(C(=O)NC3CCC(N(C)C)CC3)n(C)n2)c1OC (stereo not drawn) [Example 534]
1500 |  | [2H]C([2H])([2H])NC(=O)c1nnc(NC(=O)C2CC2)cc1Nc1cccc(-c2cc(C(=O)NC(C)C)n(C)n2)c1OC [Example 535]
650 |  | [2H]C([2H])([2H])NC(=O)c1nnc(NC(=O)C2CC2)cc1Nc1cccc(-c2cc(C(=O)NCCN(C)C)n(C)n2)c1OC [Example 536]
700 |  | [2H]C([2H])([2H])NC(=O)c1nnc(NC(=O)C2CC2)cc1Nc1cccc(-c2cc(C(=O)NCCCN(C)C)n(C)n2)c1OC [Example 537]
390 |  | [2H]C([2H])([2H])NC(=O)c1nnc(NC(=O)C2CC2)cc1Nc1cccc(-c2cc(C(=O)N3CCC3)n(C)n2)c1OC [Example 538]
120 |  | [2H]C([2H])([2H])NC(=O)c1nnc(NC(=O)C2CC2)cc1Nc1cccc(-c2cc(C(=O)N(C)CC)n(C)n2)c1OC [Example 539]
460 |  | [2H]C([2H])([2H])NC(=O)c1nnc(NC(=O)C2CC2)cc1Nc1cccc(-c2cc(C(=O)NC(COC)COC)n(C)n2)c1OC [Example 540]

IC50 (Homo sapiens) [nM] | IC50 [nM] | SMILES
1390 |  | [2H]C([2H])([2H])NC(=O)c1nnc(NC(=O)C2CC2)cc1Nc1cccc(-c2cc(C(=O)N3CCC(CCN4CCCC4)CC3)n(C)n2)c1OC [Example 541]
890 |  | [2H]C([2H])([2H])NC(=O)c1nnc(Nc2ccc(C)nn2)cc1Nc1cccc(-c2ccn(CCNC(=O)COC)n2)c1OC [Example 542]
220 |  | [2H]C([2H])([2H])NC(=O)c1nnc(Nc2ccc(OCC)nn2)cc1Nc1cc(F)cc(-c2cc(C(C)(C)O)n(C)n2)c1OC [Example 545]
110 |  | [2H]C([2H])([2H])NC(=O)c1nnc(Nc2cc(C)n(C)n2)cc1Nc1cc(F)cc(-c2cc(C(C)(C)O)n(C)n2)c1OC [Example 546]
400 |  | [2H]C([2H])([2H])NC(=O)c1nnc(Nc2cc(C(C)(C)O)ccn2)cc1Nc1cc(F)cc(-c2cc(C(C)(C)O)n(C)n2)c1OC [Example 547]
170 |  | [2H]C([2H])([2H])NC(=O)c1nnc(Nc2cc(C)n(C)n2)cc1Nc1cc(F)cc(-c2cc(C(=O)N(C)C)n(C)n2)c1OC [Example 548]
240 |  | [2H]C([2H])([2H])NC(=O)c1nnc(Nc2cc(C(C)(C)O)ccn2)cc1Nc1cc(F)cc(-c2cc(C(=O)N(C)C)n(C)n2)c1OC [Example 550]
50 |  | [2H]C([2H])([2H])NC(=O)c1cnc(Nc2ccc(OC)nn2)cc1Nc1cc(F)cc(-c2cc(C(=O)N(C)C)n(C)n2)c1OC [Example 551]
3600 |  | [2H]C([2H])([2H])NC(=O)c1nnc(Nc2cc(C)n(C)n2)cc1Nc1cc(F)cc(-c2cc(C(=O)NS(C)(=O)=O)n(C)n2)c1OC [Example 552]
120 |  | [2H]C([2H])([2H])NC(=O)c1cnc(Nc2cnn(C)n2)cc1Nc1cc(F)cc(-c2cc(C(=O)N(C)C)n(C)n2)c1OC [Example 553]
40 |  | [2H]C([2H])([2H])NC(=O)c1nnc(Nc2ccc(C)nn2)cc1Nc1cc(F)cc(-c2cc(C(=O)N(C)C)n(C)n2)c1OC [Example 555]
 | 1070 | [2H]C([2H])([2H])NC(=O)c1nnc(NC(=O)C2CC2)cc1Nc1cccc(-c2cnn(CCNC(C)=O)c2)c1OC [Example 556, 4-((3-(1-(2-acetamidoethyl)-1H-pyrazol-4-yl)-2-methoxyphenyl)amino)-6-(cyclopropanecarboxamido)-N-(methyl-d3)pyridazine-3-carboxamide]
720 |  | [2H]C([2H])([2H])NC(=O)c1nnc(NC(=O)C2CC2)cc1Nc1cccc(-c2cnn(CCN)c2)c1OC [Example 557]
1300 |  | [2H]C([2H])([2H])NC(=O)c1nnc(NC(=O)C2CC2)cc1Nc1cccc(-c2cnn(CCNC(=O)CO)c2)c1OC [Example 558]
830 |  | [2H]C([2H])([2H])NC(=O)c1nnc(NC(=O)C2CC2)cc1Nc1cccc(-c2cnn(CCNC(=O)CC#N)c2)c1OC [Example 559]
2210 |  | [2H]C([2H])([2H])NC(=O)c1nnc(NC(=O)C2CC2)cc1Nc1cccc(-c2cnn(CCNS(C)(=O)=O)c2)c1OC [Example 560]
650 |  | [2H]C([2H])([2H])NC(=O)c1nnc(NC(=O)C2CC2)cc1Nc1cccc(-c2cnn(CCNC(=O)COC)c2)c1OC [Example 562]
 | 3120 | [2H]C([2H])([2H])NC(=O)c1nnc(NC(=O)C2CC2)cc1Nc1cccc(-c2cnn(CCNC(C)=O)c2)c1OC [Example 563, 4-((3-(1-(2-acetamidoethyl)-1H-pyrazol-4-yl)-2-methoxyphenyl)amino)-6-(cyclopropanecarboxamido)-N-(methyl-d3)pyridazine-3-carboxamide]
> 10000 |  | [2H]C([2H])([2H])NC(=O)c1nnc(Nc2cnc(OC)cn2)cc1Nc1cccc(-c2csc(C(=O)N3CCOCC3)n2)c1OC [Example 564]
250 |  | [2H]C([2H])([2H])NC(=O)c1nnc(Nc2ccc(OC)nn2)cc1Nc1cccc(-c2csc(C(=O)NCCOC)n2)c1OC [Example 565]
680 |  | [2H]C([2H])([2H])NC(=O)c1nnc(NC(=O)C2CC2)cc1Nc1cccc(-c2csc(C(=O)NCCOC)n2)c1OC [Example 566]
700 |  | [2H]C([2H])([2H])NC(=O)c1cnc(Nc2ccc(OC)nn2)cc1Nc1cccc(-c2csc(C(=O)NCCOC)n2)c1OC [Example 567]
590 |  | [2H]C([2H])([2H])NC(=O)c1cnc(NC(=O)C2CC2)cc1Nc1cccc(-c2csc(C(=O)NCCOC)n2)c1OC [Example 569]
930 |  | [2H]C([2H])([2H])NC(=O)c1nnc(Nc2cnc(OC)cn2)cc1Nc1cccc(-c2csc(C(=O)NCCOC)n2)c1OC [Example 570]
1760 |  | [2H]C([2H])([2H])NC(=O)c1nnc(Nc2cc(C(C)(C)O)ccn2)cc1Nc1cccc(-c2csc(C(=O)NCCOC)n2)c1OC [Example 571]
2000 |  | [2H]C([2H])([2H])NC(=O)c1cnc(Nc2cc(C(C)(C)O)ccn2)cc1Nc1cc(F)cc(-c2csc(C(=O)NCCOC)n2)c1OC [Example 573]
700 |  | [2H]C([2H])([2H])NC(=O)c1cnc(NC(=O)C2CC2)cc1Nc1cc(F)cc(-c2csc(C(=O)NCCOC)n2)c1OC [Example 574]
